Reference: ChEMBL document CHEMBL5725862, “PRMT5 inhibitors and uses thereof” (2018)

Test: PRMT5 Biochemical Assay: The assays were all performed in a buffer consisting of 20 mM Bicine (pH=7.6), 1 mM TCEP, 0.005% BSG, and 0.002% Tween20, prepared on the day of use. Compounds in 100% DMSO (1 ul) were spotted into a polypropylene 384-well V-bottom plates (Greiner) using a Platemate Plus outfitted with a 384-channel head (Thermo Scientific). DMSO (1 ul) was added to Columns 11, 12, 23, 24, rows A-H for the maximum signal control and 1 ul of SAH, a known product and inhibitor of PRMT5/MEP50, was added to columns 11, 12, 23, 24, rows I-P for the minimum signal control. A cocktail (40 ul) containing the PRMT5/MEP50 enzyme and the peptide was added by Multidrop Combi (Thermo-Fisher). The compounds were allowed to incubate with PRMT5/MEP50 for 30 min at 25 degrees Celsius, then a cocktail (10 ul) containing 3H-SAM was added to initiate the reaction (final volume=51 ul). The final concentrations of the components were as follows: PRMT5/MEP50 was 4 nM, 3H-SAM was 75 nM, peptide was 40 nM, SAH in the minimum signal control wells was 100 uM, and the DMSO concentration was 1%. The assays were stopped by the addition of non-radioactive SAM (10 ul) to a final concentration of 600 uM, which dilutes the 3H-SAM to a level where its incorporation into the peptide substrate is no longer detectable. […]

C[C@H](Oc1cccc2cccnc12)C(=O)NC[C@@H](O)CN1Cc2ccccc2C1
IC50: in the range around 550 nM
